Drawing on US12319672B2, “Alpha-D-galactopyranoside derivatives” (Idorsia Pharmaceuticals Ltd, priority 2019, dated 2025), this text covers IC50 for 23 molecules.

One test addresses human Gal-3 (hGal-3) (Homo sapiens (Human), UniProt P17931). Description: Competitive binding assay: binding of biotinylated hGal-3 to microplate-adsorbed asialofetuin (ASF). Conditions: Activity on hGal-3; mean values of several measurements. Summed up:
(§1)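 Spectrophotometric readout (streptavidin-peroxidase, ABTS) of biotinylated galectin retained on ASF-coated wells. Biotinylated hGal-1 or hGal-3, 300-1000 ng/mL, co-incubated with test compound 3 h at 4° C, then washed. Mean IC50 from repeat runs.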

Another test deals with human Gal-1 (hGal-1). The test is described as follows: Competitive binding assay: binding of biotinylated hGal-1 to microplate-adsorbed asialofetuin (ASF). The following applies: Activities on hGal-1; mean values of several measurements. Summed up: as §1

Each structure is given as a SMILES string. pIC50: −log10 of the molar value.

human Gal-1 (hGal-1), sequence (P09382 2-135 limits assumed): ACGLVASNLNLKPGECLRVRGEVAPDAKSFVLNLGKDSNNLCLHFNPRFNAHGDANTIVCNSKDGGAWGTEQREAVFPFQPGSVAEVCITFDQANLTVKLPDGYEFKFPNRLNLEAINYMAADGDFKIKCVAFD
human Gal-3 (hGal-3), sequence (P17931 whole entry): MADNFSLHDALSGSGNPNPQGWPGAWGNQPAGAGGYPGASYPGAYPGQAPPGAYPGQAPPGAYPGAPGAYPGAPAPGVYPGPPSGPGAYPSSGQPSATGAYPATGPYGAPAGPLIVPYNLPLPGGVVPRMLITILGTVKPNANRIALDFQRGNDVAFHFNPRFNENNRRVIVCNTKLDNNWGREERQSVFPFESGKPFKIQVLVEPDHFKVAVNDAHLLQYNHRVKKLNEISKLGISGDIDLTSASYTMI

In the case of `CO[C@@H]1[C@@H](n2cc(-c3cc(F)c(F)c(F)c3)nn2)[C@@H](O)[C@@H](CO)O[C@@H]1Cc1cn(C2CCN(C(=O)OCc3ccccc3)CC2)nn1` [Example 4.13, benzyl 4-(4-(((2R,3R,4S,5R,6R)-5-hydroxy-6-(hydroxymethyl)-3-methoxy-4-(4-(3,4,5-trifluorophenyl)-1H-1,2,3-triazol-1-yl)tetrahydro-2H-pyran-2-yl)methyl)-1H-1,2,3-triazol-1-yl)piperidine-1-carboxylate], the pIC50 – broadly, the negative decadic logarithm of the IC50, by convention in mol/L – is 7.77 at human Gal-3 (hGal-3) and 6.47 on human Gal-1 (hGal-1).

As for `COCC(C)(C)c1cc(C[C@H]2O[C@H](CO)[C@H](O)[C@H](n3cc(-c4cc(F)c(F)c(F)c4)nn3)[C@H]2OC)on1` [Ex 1.314], the pIC50 was 6.89 at human Gal-3 (hGal-3) and 5.86 at human Gal-1 (hGal-1).

Consider `CO[C@@H]1[C@@H](n2cc(-c3cc(F)c(F)c(F)c3)nn2)[C@@H](O)[C@@H](CO)O[C@@H]1CC1CN(CC2CCN(C(=O)OC(C)(C)C)CC2)C(=O)O1` (mixture of isomers) [Example 5.16, tert-butyl 4-(((RS)-5-(((2R,3R,4S,5R,6R)-5-hydroxy-6-(hydroxymethyl)-3-methoxy-4-(4-(3,4,5-trifluorophenyl)-1H-1,2,3-triazol-1-yl)tetrahydro-2H-pyran-2-yl)methyl)-2-oxooxazolidin-3-yl)methyl)piperidine-1-carboxylate], for which the figures for the pIC50 at human Gal-3 (hGal-3) and at human Gal-1 (hGal-1) were 6.20 and 4.38, respectively.

As to `CO[C@@H]1[C@@H](n2cc(-c3cc(F)cc(Cl)c3)nn2)[C@@H](O)[C@@H](CO)O[C@@H]1Cc1cc(C2CCN(S(C)(=O)=O)CC2)on1` [Ex 1.160], the pIC50 was 7.11 at human Gal-3 (hGal-3) and 6.14 at human Gal-1 (hGal-1).

In the case of `CCCCO[C@@H]1[C@@H](n2cc(-c3cc(F)c(F)c(F)c3)nn2)[C@@H](O)[C@@H](CO)O[C@@H]1Cc1cc(C2CCN(C(=O)OC(C)(C)C)CC2)on1` [Example 2.20, tert-butyl 4-(3-(((2R,3R,4S,5R,6R)-3-butoxy-5-hydroxy-6-(hydroxymethyl)-4-(4-(3,4,5-trifluorophenyl)-1H-1,2,3-triazol-1-yl)tetrahydro-2H-pyran-2-yl)methyl)isoxazol-5-yl)piperidine-1-carboxylate], the pIC50 on human Gal-3 (hGal-3) was 6.41; at human Gal-1 (hGal-1) it was 5.69.

With `CO[C@@H]1[C@@H](n2cc(-c3cc(F)c(F)c(F)c3)nn2)[C@@H](O)[C@@H](CO)O[C@@H]1Cc1cn(C2CCN(S(=O)(=O)C(C)C)CC2)nn1` [Example 4.10, (2R,3R,4S,5R,6R)-2-(hydroxymethyl)-6-((1-(1-(isopropylsulfonyl)piperidin-4-yl)-1H-1,2,3-triazol-4-yl)methyl)-5-methoxy-4-(4-(3,4,5-trifluorophenyl)-1H-1,2,3-triazol-1-yl)tetrahydro-2H-pyran-3-ol], the pIC50 on human Gal-3 (hGal-3) is 7.60; on human Gal-1 (hGal-1), 6.57.

Take `CO[C@@H]1[C@@H](n2cc(-c3cc(F)c(F)c(F)c3)nn2)[C@@H](O)[C@@H](CO)O[C@@H]1Cn1cc(C2CCN(C(C)=O)CC2)nn1` [Example 4.04, 1-(4-(1-(((2R,3R,4S,5R,6R)-5-hydroxy-6-(hydroxymethyl)-3-methoxy-4-(4-(3,4,5-trifluorophenyl)-1H-1,2,3-triazol-1-yl)tetrahydro-2H-pyran-2-yl)methyl)-1H-1,2,3-triazol-4-yl)piperidin-1-yl)ethan-1-one]: the pIC50 at human Gal-3 (hGal-3) is 7.36; on human Gal-1 (hGal-1) it was 6.15.

For `CC(C)(C)OC(=O)N1CCC(C2=NOC(C[C@H]3O[C@H](CO)[C@H](O)[C@H](n4cc(-c5cccc(C(F)(F)F)c5)nn4)[C@H]3O)C2)CC1` (stereo partly shown) [Ex 1.301], the pIC50 at human Gal-3 (hGal-3) is 5.57; on human Gal-1 (hGal-1), 5.54.

In the case of `CO[C@@H]1[C@@H](n2cc(-c3cc(F)c(F)c(F)c3)nn2)[C@@H](O)[C@@H](CO)O[C@@H]1Cc1cc(C2CCN(CCC(C)(C)C)CC2)on1` [Example 3.42, (2R,3R,4S,5R,6R)-6-((5-(1-(3,3-dimethylbutyl)piperidin-4-yl)isoxazol-3-yl)methyl)-2-(hydroxymethyl)-5-methoxy-4-(4-(3,4,5-trifluorophenyl)-1H-1,2,3-triazol-1-yl)tetrahydro-2H-pyran-3-ol], the pIC50 is 6.85 at human Gal-3 (hGal-3) and 5.23 at human Gal-1 (hGal-1).

`CO[C@@H]1[C@@H](n2cc(-c3cc(F)c(F)c(F)c3)nn2)[C@@H](O)[C@@H](CO)O[C@@H]1CC1CN(c2ccc(OC(F)F)cc2)C(=O)O1` (mixture of isomers) [Example 5.02, (RS)-3-(4-(difluoromethoxy)phenyl)-5-(((2R,3R,4S,5R,6R)-5-hydroxy-6-(hydroxymethyl)-3-methoxy-4-(4-(3,4,5-trifluorophenyl)-1H-1,2,3-triazol-1-yl)tetrahydro-2H-pyran-2-yl)methyl)oxazolidin-2-one]: the pIC50 is 5.81 on human Gal-3 (hGal-3) and 5.45 at human Gal-1 (hGal-1).

On to `CO[C@@H]1[C@@H](n2cc(-c3ccc(F)c(F)c3F)nn2)[C@@H](O)[C@@H](CO)O[C@@H]1Cc1cc(C2(C)CCOCC2)no1` [Ex 1.283], for which the pIC50 was 7.31 on human Gal-3 (hGal-3) and 6.42 at human Gal-1 (hGal-1).

With `CC(C)(C)OC(=O)N1CCC(C2=NOC(C[C@H]3O[C@H](CO)[C@H](O)[C@H](n4cc(-c5ccc(Cl)c(Cl)c5)nn4)[C@H]3O)C2)CC1` (stereo partly shown) [Ex 1.107], the values for the pIC50 at human Gal-3 (hGal-3) and at human Gal-1 (hGal-1) were 6.96 and 6.40, respectively.

Consider `CO[C@@H]1[C@@H](n2cc(-c3cc(F)c(F)c(F)c3)nn2)[C@@H](O)[C@@H](CO)O[C@@H]1CC1CN(C2CCOCC2)C(=O)O1` (mixture of isomers) [Example 5.17, (RS)-5-(((2R,3R,4S,5R,6R)-5-hydroxy-6-(hydroxymethyl)-3-methoxy-4-(4-(3,4,5-trifluorophenyl)-1H-1,2,3-triazol-1-yl)tetrahydro-2H-pyran-2-yl)methyl)-3-(tetrahydro-2H-pyran-4-yl)oxazolidin-2-one], for which the results for the pIC50 on human Gal-3 (hGal-3) and on human Gal-1 (hGal-1) were 6.72 and 5.04, respectively.

In the case of `OC[C@H]1O[C@H](CC2CC(c3cccc(Cl)c3)=NO2)[C@H](O)[C@@H](n2cc(-c3cc(F)c(F)c(F)c3)nn2)[C@H]1O` (stereo partly shown) [Ex 1.18], the pIC50 at human Gal-3 (hGal-3) is 6.01; at human Gal-1 (hGal-1) it was 4.85.

Consider `CO[C@@H]1[C@@H](n2cc(-c3ccc(Cl)c(F)c3F)nn2)[C@@H](O)[C@@H](CO)O[C@@H]1Cc1cc(C2(C)CCCC2)no1` [Ex 1.289], for which the values for the pIC50 on human Gal-3 (hGal-3) and at human Gal-1 (hGal-1) were 7.23 and 5.75, respectively.

With `CO[C@@H]1[C@@H](n2cc(-c3ccc(Br)c(F)c3)nn2)[C@@H](O)[C@@H](CO)O[C@@H]1CC1CC(C2CCN(C(=O)OC(C)(C)C)CC2)=NO1` (stereo partly shown) [Ex 1.117], the pIC50 was 6.48 at human Gal-3 (hGal-3) and 5.94 on human Gal-1 (hGal-1).

Turning to `CO[C@@H]1[C@@H](n2cc(-c3cc(F)c(F)c(F)c3)nn2)[C@@H](O)[C@@H](CO)O[C@@H]1Cc1cc(C2CCC(NC(=O)[C@@H](N)C(C)C)CC2)no1` (stereo partly drawn) [Example 2.30, (S)-2-amino-N-((1R,4S)-4-(5-(((2R,3R,4S,5R,6R)-5-hydroxy-6-(hydroxymethyl)-3-methoxy-4-(4-(3,4,5-trifluorophenyl)-1H-1,2,3-triazol-1-yl)tetrahydro-2H-pyran-2-yl)methyl)isoxazol-3-yl)cyclohexyl)-3-methylbutanamide], the figures for the pIC50 on human Gal-3 (hGal-3) and on human Gal-1 (hGal-1) were 7.14 and 5.70, respectively.

In the case of `CO[C@@H]1[C@@H](n2cc(-c3cc(F)c(F)c(F)c3)nn2)[C@@H](O)[C@@H](CO)O[C@@H]1Cc1cc(C2(C)CCCC2)on1` [Ex 1.272], the negative logarithm of the IC50 (pIC50) was 6.60 at human Gal-3 (hGal-3) and 5.46 at human Gal-1 (hGal-1).

`O=C1CCC(c2cc(C[C@H]3O[C@H](CO)[C@H](O)[C@H](n4cc(-c5cc(F)c(F)c(F)c5)nn4)[C@H]3O)no2)CC1` [Example 2.12, 4-(3-(((2R,3R,4R,5R,6R)-3,5-dihydroxy-6-(hydroxymethyl)-4-(4-(3,4,5-trifluorophenyl)-1H-1,2,3-triazol-1-yl)tetrahydro-2H-pyran-2-yl)methyl)isoxazol-5-yl)cyclohexan-1-one]: the pIC50 was 6.72 at human Gal-3 (hGal-3) and 5.44 at human Gal-1 (hGal-1).

Consider `CO[C@@H]1[C@@H](n2cc(-c3cc(F)c(F)c(F)c3)nn2)[C@@H](O)[C@@H](CO)O[C@@H]1Cc1cc(C2CCN(CC(C)C)CC2)on1` [Example 3.41, (2R,3R,4S,5R,6R)-2-(hydroxymethyl)-6-((5-(1-isobutylpiperidin-4-yl)isoxazol-3-yl)methyl)-5-methoxy-4-(4-(3,4,5-trifluorophenyl)-1H-1,2,3-triazol-1-yl)tetrahydro-2H-pyran-3-ol], for which the pIC50 is 6.64 at human Gal-3 (hGal-3) and 5.53 at human Gal-1 (hGal-1).

As to `COc1ccc(C2=NOC(C[C@@H]3O[C@H](CO)[C@H](O)[C@H](n4cc(-c5cc(F)c(F)c(F)c5)nn4)[C@H]3O)C2)cc1` (stereo partly shown) [Ex 1.88], the pIC50 at human Gal-3 (hGal-3) is 5.21; on human Gal-1 (hGal-1), 4.65.

`CCOC(=O)N1CCC(N2CN(C[C@H]3O[C@H](CO)[C@H](O)[C@H](n4cc(-c5cc(F)c(F)c(F)c5)nn4)[C@H]3OC)CC2=O)CC1` [Example 6.11, ethyl 4-(3-(((2R,3R,4S,5R,6R)-5-hydroxy-6-(hydroxymethyl)-3-methoxy-4-(4-(3,4,5-trifluorophenyl)-1H-1,2,3-triazol-1-yl)tetrahydro-2H-pyran-2-yl)methyl)-5-oxoimidazolidin-1-yl)piperidine-1-carboxylate]: the pIC50 on human Gal-3 (hGal-3) was 7.59; at human Gal-1 (hGal-1), 7.04.

Consider `CO[C@@H]1[C@@H](n2cc(-c3cc(F)c(F)c(F)c3)nn2)[C@@H](O)[C@@H](CO)O[C@@H]1Cn1cc(C2(C#N)CCCC2)nn1` [Example 4.50, 1-(1-(((2R,3R,4S,5R,6R)-5-hydroxy-6-(hydroxymethyl)-3-methoxy-4-(4-(3,4,5-trifluorophenyl)-1H-1,2,3-triazol-1-yl)tetrahydro-2H-pyran-2-yl)methyl)-1H-1,2,3-triazol-4-yl)cyclopentane-1-carbonitrile], for which the pIC50 is 6.48 at human Gal-3 (hGal-3) and 5.37 at human Gal-1 (hGal-1).
